Data: patent US8716493B2, “Multicyclic compounds and the use thereof” (Cephalon, Inc., priority 2000, dated 2014)
Like-named read-outs stand apart in the source and are kept apart here.

Molecular target: recombinant human PARP (Homo sapiens, UniProt P09874)
Assay: Measurement of PARP enzymatic activity (transfer of radiolabeled ADP-ribose from NAD+ to protein acceptor)
Format: biochemical
Protocol: PARP activity was monitored by transfer of radiolabeled ADP-ribose units from [^32]NAD^+ to a protein acceptor such as histone or PARP itself. […] The reactions were initiated by the addition of 100 μM NAD^+ supplemented with 2 uCi [^32]NAD^+/mL and maintained at room temperature for 12 minutes. […] The amount of acid-insoluble radioactivity, corresponding to polyADP-ribosylated protein, was quantitated in a Wallac MicroBeta scintillation counter.
Single-point inhibition data were calculated by comparing PARP, VEGFR2, or MLK3 activity in the presence of inhibitor to activity in the presence of DMSO only. Inhibition curves for compounds were generated by plotting percent inhibition versus log10 of the concentration of compound. IC50 values were calculated by nonlinear regression using the sigmoidal dose-response (variable slope) equation in GraphPad Prism as follows: y=bottom+(top−bottom)/(1+10^(log IC50^−x)*Hillslope) where y is the % activity at a given concentration of compound, x is the logarithm of the concentration of compound, bottom is the % inhibition at the lowest compound concentration tested, and top is the % inhibition at the highest compound concentration examined. The values for bottom and top were fixed at 0 and 100, respectively. IC50 values were reported as the average of at least three separate determinations.
For some compounds, inhibiting data is presented as percent inhibition at a specified concentration. Compounds are tabulated together with compound number, substituents, and enzyme inhibition data.

recombinant human PARP, sequence (P09874 whole entry): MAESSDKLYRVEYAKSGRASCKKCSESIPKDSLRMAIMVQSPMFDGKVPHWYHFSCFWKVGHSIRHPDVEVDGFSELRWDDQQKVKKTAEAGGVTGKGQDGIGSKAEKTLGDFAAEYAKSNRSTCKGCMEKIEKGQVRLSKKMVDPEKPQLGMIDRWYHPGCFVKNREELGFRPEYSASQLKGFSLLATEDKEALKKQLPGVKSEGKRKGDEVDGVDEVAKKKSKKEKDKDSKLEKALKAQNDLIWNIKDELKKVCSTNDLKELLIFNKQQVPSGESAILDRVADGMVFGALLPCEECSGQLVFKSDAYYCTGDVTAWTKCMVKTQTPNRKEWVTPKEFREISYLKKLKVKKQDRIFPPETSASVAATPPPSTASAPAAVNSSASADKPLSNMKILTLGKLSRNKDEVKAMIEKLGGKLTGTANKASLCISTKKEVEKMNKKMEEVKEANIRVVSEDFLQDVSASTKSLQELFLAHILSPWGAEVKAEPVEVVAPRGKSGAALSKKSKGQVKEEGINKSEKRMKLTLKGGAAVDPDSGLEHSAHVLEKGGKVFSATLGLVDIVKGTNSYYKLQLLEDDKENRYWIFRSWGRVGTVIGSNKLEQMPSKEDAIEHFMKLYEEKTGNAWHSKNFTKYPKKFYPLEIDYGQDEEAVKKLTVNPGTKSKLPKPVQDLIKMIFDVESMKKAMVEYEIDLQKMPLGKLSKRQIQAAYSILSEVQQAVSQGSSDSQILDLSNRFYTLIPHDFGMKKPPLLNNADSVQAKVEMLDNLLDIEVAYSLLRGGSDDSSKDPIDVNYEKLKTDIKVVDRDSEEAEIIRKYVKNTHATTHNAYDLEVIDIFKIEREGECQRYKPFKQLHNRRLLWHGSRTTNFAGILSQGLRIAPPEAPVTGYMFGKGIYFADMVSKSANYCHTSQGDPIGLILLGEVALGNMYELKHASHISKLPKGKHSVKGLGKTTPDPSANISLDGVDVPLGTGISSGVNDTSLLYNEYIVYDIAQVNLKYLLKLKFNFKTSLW

Compound	IC50 (Table 2, read-out: PARP IC50) [nM]	further results
CN(CCc1ccccn1)C(=O)c1ccc2[nH]c3c4c(c5c(c3c2c1)C(=O)NC5=O)CCC4 [Compound 2cw]	24	
O=C1NC(=O)c2c1c1c(c3[nH]c4ccc(Cl)cc4c23)CCC1 [Compound 2b]	39	
COc1cccc2c1c1c3c(c4c(c1n2CN1CCOCC1)CCC4)C(=O)N(CN1CCOCC1)C3=O [Compound 16a]		IC50 (Table 18, read-out: PARP IC50): 10 nM
O=C(NCCc1ccccn1)Oc1ccc2[nH]c3c4c(c5c(c3c2c1)C(=O)NC5=O)CCC4 [Compound 15g]		IC50 (PARP IC50 (nM), Table 8): 36 nM
CCOc1cccc2[nH]c3c4c(c5c(c3c12)C(=O)NC5=O)CCC4 [Compound 14g]		IC50 (Table 18, read-out: PARP IC50): 56 nM
O=C1NC(=O)c2c1c1c(c3[nH]c4ccc(CO)cc4c23)CCC1 [Compound 2aw]	22	
O=CNCc1ccc2[nH]c3c4c(c5c(c3c2c1)C(O)NC5=O)CCC4 (centres unmarked) [Compound 2cf]	124	
CC(=O)c1ccc2[nH]c3c4c(c5c(c3c2c1)C(=O)NC5=O)CCC4 [Compound 2d]	17	
CC(C)(C)OC(=O)NCCCC[C@H](NC(=O)OC(C)(C)C)C(=O)n1c2ccccc2c2c3c(c4c(c21)CCC4)C(=O)NC3 [Compound 1u, 11-[Bis(t-butoxycarbonyl)-L-lysyl]-5,7,8,9,10,11-hexahydrocyclopent[a]pyrrolo[3,4-c]carbazole-7(6H)-one]		IC50 (Table 1, read-out: PARP IC50): 1500 nM
O=C1NC(=O)c2c1c1c(c3[nH]c4ccc(OC(=O)N5CCN(CCO)CC5)cc4c23)CCC1 [Compound 15l]		IC50 (PARP IC50 (nM), Table 8): 15 nM
N#Cc1ccc2[nH]c3c4c(c5c(c3c2c1)C(=O)NC5=O)CCC4 [Compound 2o, 3-Cyano-5,7,8,9,10,11-hexahydrocyclopent[a]pyrrolo[3,4-c]carbazole-5(6H), 7-dione]	14	
CN(C)CC(=O)OCc1ccc2[nH]c3c4c(c5c(c3c2c1)C(=O)NC5=O)CCC4 [Compound 2bg]	31	
COc1c(I)ccc2[nH]c3c4c(c5c(c3c12)C(=O)NC5=O)CCC4 [Compound 14n]		IC50 (Table 18, read-out: PARP IC50): 126 nM
N#CCc1ccc2[nH]c3c4c(c5c(c3c2c1)C(=O)NC5=O)CCC4 [Compound 2bc]	24	
COc1cccc2[nH]c3c4c(c5c(c3c12)C(=O)NC5=O)CCC4 [Compound 14b]		IC50 (Table 7, read-out: PARP IC50): 19 nM
CN1CCN(C(=O)c2ccc3[nH]c4c5c(c6c(c4c3c2)C(=O)NC6=O)CCC5)CC1 [Compound 2cq]	12	
O=C(NCCN1CCCCC1)c1ccc2[nH]c3c4c(c5c(c3c2c1)C(=O)NC5=O)CCC4 [Compound 2cm]	148	
COc1cc[n+]([O-])c2[nH]c3c4c(c5c(c3c12)C(=O)NC5=O)CCC4 [Compound 8m]		IC50 (Table 18, read-out: PARP IC50): 17 nM

Continued, in another order:

IC50 (Table 2, read-out: PARP IC50) [nM]	Compound	further results
42	CCCC(=O)NCc1nc(-c2ccc3[nH]c4c5c(c6c(c4c3c2)C(=O)NC6=O)CCC5)cs1 [Compound 3u]	
17	O=C1CCC(c2ccc3[nH]c4c5c(c6c(c4c3c2)C(=O)NC6=O)CCC5)=NN1 [Compound 4l]	
12	CCN(CC)C(=O)CCC(=O)c1ccc2[nH]c3c4c(c5c(c3c2c1)C(=O)NC5=O)CCC4 [Compound 4i]	
19	NC(N)=Nc1nc(-c2ccc3[nH]c4c5c(c6c(c4c3c2)C(=O)NC6=O)CCC5)cs1 [Compound 3g]	
7	O=C(CN1CCCC1C(=O)O)c1ccc2[nH]c3c4c(c5c(c3c2c1)C(=O)NC5=O)CCC4 (centres unmarked) [Compound 4c]	
42	NCc1nc(-c2ccc3[nH]c4c5c(c6c(c4c3c2)C(=O)NC6=O)CCC5)cs1 [Compound 3k]	
15	O=C(CCC(=O)N1CCNCC1)c1ccc2[nH]c3c4c(c5c(c3c2c1)C(=O)NC5=O)CCC4 [Compound 4r]	
25	Nc1nc(-c2ccc3[nH]c4c5c(c6c(c4c3c2)C(=O)NC6=O)CCC5)cs1 [Compound 3a]	
40	Cc1nc(-c2ccc3[nH]c4c5c(c6c(c4c3c2)C(=O)NC6=O)CCC5)cs1 [Compound 3b]	
1	O=C(O)c1nccnc1C(=O)c1ccc2[nH]c3c4c(c5c(c3c2c1)C(=O)NC5=O)CCC4 [Compound 4k]	
29	CC(C)(C)OC(=O)Cc1nc(-c2ccc3[nH]c4c5c(c6c(c4c3c2)C(=O)NC6=O)CCC5)cs1 [Compound 3q]	
